Measured values as given in article PMC6273912, “Novel 5-Substituted 2-(Aylmethylthio)-4-chloro-N-(5-aryl-1,2,4-triazin-3-yl)benzenesulfonamides: Synthesis, Molecular Structure, Anticancer Activity, Apoptosis-Inducing Activity and Metabolic Stability” (Molecules, 2016).

Assays:
[1] = test system: HCT-116 (colon cancer); assay: MTT cell viability assay, HCT-116; type: cell-based, human; conditions: 72 h of incubation, mean ± SD
Experimental: (§1) All chemicals, if not stated otherwise, were obtained from Sigma-Aldrich (St. Louis, MO, USA). The MCF-7 cell line was purchased from Cell Lines Services (Eppelheim, Germany), the HeLa and HCT-116 cell lines were obtained from the Department of Microbiology, Tumor and Cell Biology, Karolinska Institute (Stockholm, Sweden). Cells were cultured in Dulbecco’s modified Eagle’s medium (DMEM) supplemented with 10% fetal bovine serum, 2 mM glutamine, 100 units/mL penicillin, and 100 μg/mL streptomycin. Cultures were maintained in a humidified atmosphere with 5% CO2 at 37 °C in an incubator (HeraCell, Heraeus, Langenselbold, Germany).
(§2) Cell viability was determined using the MTT (3-(4,5-dimethylthiazol-2-yl)-2,5-diphenyl-tetrazoliumbromide) assay. Stock solutions of the studied compounds were prepared in 100% DMSO. […] Cells were seeded in 96-well plates at a density of 5 × 10^3 cells/well and treated for 72 h with the examined compounds in the concentration range 1–100 μM (1, 10, 25, 50 and 100 μM). Following treatment, MTT (0.5 mg/mL) was added to the medium and cells were further incubated for 2 h at 37 °C. Cells were lysed with DMSO and the absorbance of the formazan solution was measured at 550 nm with a plate reader (1420 multilabel counter, Victor, Jügesheim, Germany). […] The experiment was performed in triplicate. Values are expressed as the mean ± SD of at least three independent experiments.

[2] = test system: HeLa (cervical cancer); assay: MTT cell viability assay, HeLa; type: cell-based, human; conditions: 72 h of incubation, mean ± SD
Experimental: as §1, §2

[3] = test system: MCF-7 (breast cancer); assay: MTT cell viability assay, MCF-7; type: cell-based, human; conditions: Homo sapiens, MCF7, 72 h of incubation, mean ± SD
Experimental: as §1, §2

[4] = test system: HCT-116, HeLa and MCF-7; assay: MTT cell viability assay, all tested cell lines together; type: cell-based; conditions: Homo sapiens; average over HCT-116, HeLa and MCF-7; read-out: average IC50 against all tested cell lines
Experimental: as §1, §2

[5] = test system: HCT-116; assay: Cell cycle analysis (sub-G1, DAPI flow cytometry), HCT-116; type: cell-based, human; conditions: HCT-116, 24 h, dose dependent increase, mean ± SD
Experimental: (§3) One of the most common mechanisms in anticancer drug treatment is changes in cell cycle, which can be measured by DNA content. Cell cycle distribution in HCT-116, HeLa and MCF-7 cells was examined to determine cycle arrest and/or presence of sub-G1 after treatment with compounds 37 and 46. […] Cell populations data are expressed as the mean ± SD of at least three independent experiments.
(§4) Following treatment, cells were fixed in cold 70% ethanol for 30 min. Fixed cells were stained for 15 min in buffer containing 500 μg/mL RNAse A (EURx, Gdansk, Poland) and 2.5 μg/mL of DAPI (Sigma-Aldrich, Munich, Germany). The fluorescence of DAPI was measured at 440 ± 40 nm with a flow cytometer (LSR II, BD Biosciences, Mountain View, CA, USA). Each experiment was performed at least in triplicate. Data were analyzed off-line using the BD FACSDiva (BD Biosciences).

[6] = test system: HeLa; assay: Cell cycle analysis (sub-G1, DAPI flow cytometry), HeLa; type: cell-based, human; conditions: 24 h, dose dependent increase, mean ± SD
Experimental: as §3, §4

[7] = test system: active caspases (caspases 1 through 9) in HeLa cells; assay: Caspase activity (FAM-VAD-FMK, flow cytometry), HeLa; type: cell-based, human; conditions: 100 μM, increase over control
Experimental: Caspase activation plays a central role in the execution of apoptosis and is required for the occurrence of its biochemical and morphological hallmarks, such as DNA fragmentation, formation of apoptotic bodies and chromatin condensation. The ability of the examined compounds to induce caspase activity was determined with the use of a fluorescent labeled caspase inhibitor, a carboxyfluorescein (FAM) derivative of valylalanylaspartic acid (VAD) fluoromethyl ketone (FMK).
FAM-VAD-FMK contains a target sequence recognized by active caspases (caspases 1 through 9). Binding to this sequence inhibits the enzymatic activity of caspases and allows for the determination of their activity through the direct measurement of fluorescent intensity of the bound inhibitor. […] The strongest influence on caspase activation was noticed for the HeLa cell line, where that cell population increased by 31% in the presence of 37 at a concentration of 100 μM.
Caspase activity was determined with the FLICA Apoptosis Detection Kit (Immunochemistry Technologies, Bloomington, MN, USA) according to the manufacturer’s instructions. […] The fluorescence intensity of fluorescein was determined with flow cytometry (BD FACSCalibur) and caspase activity was determined as the amount of fluorescence emitted from caspase inhibitors bound to the caspases.

[8] = test system: HCT-116; assay: Mitochondrial membrane potential (JC-1), HCT-116; type: cell-based, human; conditions: HCT-116, 24 h, low and moderate concentrations
Experimental: (§5) Loss of the mitochondrial membrane potential (Δψm) is one of the earliest indicators of an apoptosis. It can be detected using fluorescent dye JC-1 (5,5′,6,6′-tetrachloro-1,1′,3,3′-tetraethylbenzimidazolylcarbocyanine iodide) exited with blue laser. JC-1 spontaneously forms dimer complexes (J aggregates) with red fluorescent or remain as a monomers with green fluorescence in cells with high and low Δψm, respectively.
(§6) Half an hour before the end of 24 h-treatment 2.5 μg/mL of JC-1 (5,5′,6,6′-tetrachloro-1,1′,3,3′-tetraethylbenzimidazolylcarbocyanine iodide) was added to the cell medium. As a negative control 100 μM CCCP (carbonyl cyanide 3-chlorophenylhydrazone) was used 15 min before JC-1 treatment. Following treatment cells were twice washed with PBS and analyzed with flow cytometer (LSR II, BD Biosciences).
(§7) Green and red fluorescence were observed using FL-1 (530 ± 30 nm) and FL-2 (585 ± 42 nm) channels, respectively. Percentage of cell population in red or green fluorescence gate indicated the level of Δψm. Decreasing red fluorescence cell population indicated lower Δψm.

[9] = test system: HeLa; assay: Mitochondrial membrane potential (JC-1), HeLa; type: cell-based, human; conditions: 24 h, low and moderate concentrations
Experimental: as §5, §6, §7

[10] = test system: HeLa; assay: Cell morphology (light microscope), HeLa; type: cell-based, human; conditions: 25–100 μM, 24 h
Experimental: To evaluate the changes in morphology of the treated cells, they were incubated with increasing concentrations of 37 (HCT-116, HeLa) or 46 (MCF-7) for 24 h and observed using light microscope.
The HCT-116, HeLa and MCF-7cells were seeded on 24-well plates (5 × 10^4/per well) in 300 μL of medium and incubated with 37 (HCT-116, HeLa) or 46 (MCF-7) for 24 h. Cells incubated with increasing concentrations of compounds (25–100 μM) were observed after 24 h using light microscope Axiovert 200 (Zeiss, Oberkochen, Germany).

In the case of Cc1cc(S(=O)(=O)Nc2nncc(-c3ccc(C(F)(F)F)cc3)n2)c(SCc2cccc3ccccc23)cc1Cl [Compound 37, 4-Chloro-5-methyl-2-[(naphthalene-1-yl)methylthio]-N-[5-(4-trifluoromethylphenyl)-1,2,4-triazin-3-yl]-benzenesulfonamide], the IC50 [1] is reported as 36 ± 1 µM, the IC50 ([1]; Homo sapiens, HCT-116, 72 h) is reported as 36 to 38 µM and the IC50 [2] is reported as 34 ± 2 µM. The IC50 ([2]; Homo sapiens, 72 h) was 34 to 42 µM, the IC50 [3] was 70 ± 3 µM and the IC50 [4] was 47 µM. For the same compound, the Sub-G1 cell population [5] was 48.6% ± 13.5%, the Sub-G1 cell population [6] was 21% ± 3.4% and the “increase of cell population with activated caspases” value [7] was 31%. For the same compound, the “effect on mitochondrial membrane potential (Δψm)” value [8] was “remarkably decreased Δψm”, the “effect on mitochondrial membrane potential (Δψm)” value [9] was “remarkably decreased Δψm” and the morphological changes [10] was “shrinkage of the cells, detachment from the surface”.
